Data reported in PubChem BioAssay AID1745844 (Carcinogenic Potency Database (CPDB), 2022).
Several values for one entry are separate records, joined by “and”; a condition that tells them apart may be missing. Identical values can stand only once. Activity calls are given as the source filed them. No rule for the calls is given here.

System: rodent lifetime carcinogenesis bioassay, tumor incidence TD50
Assay: chronic cancer bioassays in animals – CPDB, compiled studies (AID 1745844)

ClC1=C(Cl)[C@]2(Cl)[C@@H]3[C@@H]4C[C@@H]([C@H]5O[C@@H]45)[C@@H]3[C@@]1(Cl)C2(Cl)Cl
TD50 (hamster, strain Syrian Golden, females, in feed, site: any site (literature study), lesion: several types, types named in the paper, dosed 100 weeks, study length 114 weeks): 355 mg/kg/day (inactive)
TD50 (hamster, strain Syrian Golden, females, in feed, site: liver, lesion: hepatoma, dosed 100 weeks, study length 114 weeks): 176 mg/kg/day (inactive)
carcinogen call (hamster, strain Syrian Golden, females, in feed, site: lung, lesion: one or several types, types not named, dosed 100 weeks, study length 114 weeks): negative (inactive)
TD50 (hamster, strain Syrian Golden, males, in feed, site: any site (literature study), lesion: several types, types named in the paper, dosed 114 weeks, study length 114 weeks): 69.9 mg/kg/day (inactive)
TD50 (hamster, strain Syrian Golden, males, in feed, site: liver, lesion: hepatoma, dosed 114 weeks, study length 114 weeks): 198 mg/kg/day (inactive)
TD50 (hamster, strain Syrian Golden, males, in feed, site: lung, lesion: adenoma, dosed 114 weeks, study length 114 weeks): 732 mg/kg/day (inactive)
carcinogen call (mouse, strain B6C3F1, females, in feed, site: any site (literature study), lesion: several types, types named in the paper, dosed 80 weeks, study length 91 weeks): negative (inactive)
TD50 (mouse, strain B6C3F1, females, in feed, site: liver, lesion: hepatocellular adenoma + hepatocellular carcinoma + neoplastic nodule, dosed 80 weeks, study length 91 weeks): 1.09 mg/kg/day
TD50 (mouse, strain B6C3F1, females, in feed, site: lung, lesion: alveolar/bronchiolar adenoma + alveolar/bronchiolar carcinoma, dosed 80 weeks, study length 91 weeks): 5.05 mg/kg/day
TD50 (mouse, strain B6C3F1, males, in feed, site: any site (literature study), lesion: several types, types named in the paper, dosed 80 weeks, study length 91 weeks): 1.06 mg/kg/day (inactive)
TD50 (mouse, strain B6C3F1, males, in feed, site: liver, lesion: hepatocellular adenoma + hepatocellular carcinoma + neoplastic nodule, dosed 80 weeks, study length 91 weeks): 1.04 mg/kg/day
TD50 (mouse, strain B6C3F1, males, in feed, site: liver, lesion: hepatocellular carcinoma, dosed 80 weeks, study length 89 weeks): 1.35 mg/kg/day
TD50 (mouse, strain B6C3F1, males, in feed, site: lung, lesion: alveolar/bronchiolar adenoma + alveolar/bronchiolar carcinoma, dosed 80 weeks, study length 91 weeks): 24.7 mg/kg/day
TD50 (mouse, strain C3HeB/Fe, both sexes, in feed, site: any site (literature study), lesion: benign tumor, dosed 104 weeks, study length 104 weeks): 3.1 mg/kg/day
TD50 (mouse, strain C3HeB/Fe, both sexes, in feed, site: liver, lesion: hepatocellular adenoma, dosed 104 weeks, study length 104 weeks): 4.09 mg/kg/day
TD50 (mouse, strain C3HeB/Fe, both sexes, in feed, site: liver, lesion: hepatocellular carcinoma, dosed 104 weeks, study length 104 weeks): 167 mg/kg/day
TD50 (mouse, strain C3HeB/Fe, both sexes, in feed, site: liver, lesion: hepatoma, dosed 104 weeks, study length 104 weeks): 3.08 mg/kg/day
TD50 (mouse, strain CF-1, females, in feed, site: liver, lesion: liver-cell tumor, type B, dosed 90 weeks, study length 90 weeks): 2.59 mg/kg/day
TD50 (mouse, strain CF-1, females, in feed, site: liver, lesion: liver-cell tumor, type B, dosed 106 weeks, study length 106 weeks): 3.96 mg/kg/day
TD50 (mouse, strain CF-1, females, in feed, site: liver, lesion: liver-cell tumor, type B, dosed 108 weeks, study length 128 weeks): 9.72 mg/kg/day
TD50 (mouse, strain CF-1, females, in feed, site: liver, lesion: liver-cell tumor, type B, dosed 122 weeks, study length 138 weeks): 1.96 mg/kg/day
TD50 (mouse, strain CF-1, females, in feed, site: liver, lesion: liver-cell tumor, type B, dosed 128 weeks, study length 128 weeks): 12.1 mg/kg/day
TD50 (mouse, strain CF-1, females, in feed, site: liver, lesion: liver-cell tumor, dosed 110 weeks, study length 110 weeks): 1.59 mg/kg/day
TD50 (mouse, strain CF-1, females, in feed, site: liver, lesion: several types, types named in the paper, dosed 90 weeks, study length 90 weeks): 1.05 mg/kg/day
TD50 (mouse, strain CF-1, females, in feed, site: liver, lesion: several types, types named in the paper, dosed 106 weeks, study length 106 weeks): 1.16 mg/kg/day
TD50 (mouse, strain CF-1, females, in feed, site: liver, lesion: several types, types named in the paper, dosed 108 weeks, study length 128 weeks): 1.49 mg/kg/day
TD50 (mouse, strain CF-1, females, in feed, site: liver, lesion: several types, types named in the paper, dosed 110 weeks, study length 110 weeks): 0.567 mg/kg/day
TD50 (mouse, strain CF-1, females, in feed, site: liver, lesion: several types, types named in the paper, dosed 122 weeks, study length 138 weeks): 0.642 mg/kg/day
TD50 (mouse, strain CF-1, females, in feed, site: liver, lesion: several types, types named in the paper, dosed 128 weeks, study length 128 weeks): 3.11 mg/kg/day
carcinogen call (mouse, strain CF-1, females, in feed, site: lung, lesion: adenoma, dosed 90 weeks, study length 90 weeks): negative (inactive)
TD50 (mouse, strain CF-1, females, in feed, site: lung, lesion: adenoma, dosed 106 weeks, study length 106 weeks): 5.69 mg/kg/day (inactive)
carcinogen call (mouse, strain CF-1, females, in feed, site: lung, lesion: adenoma, dosed 108 weeks, study length 128 weeks): negative (inactive)
TD50 (mouse, strain CF-1, females, in feed, site: lung, lesion: adenoma, dosed 122 weeks, study length 138 weeks): 0.606 mg/kg/day (inactive)
carcinogen call (mouse, strain CF-1, females, in feed, site: lung, lesion: adenoma, dosed 128 weeks, study length 128 weeks): negative (inactive)
carcinogen call (mouse, strain CF-1, females, in feed, site: lung, lesion: carcinoma, dosed 90 weeks, study length 90 weeks): negative (inactive)
carcinogen call (mouse, strain CF-1, females, in feed, site: lung, lesion: carcinoma, dosed 106 weeks, study length 106 weeks): negative (inactive)
carcinogen call (mouse, strain CF-1, females, in feed, site: lung, lesion: carcinoma, dosed 108 weeks, study length 128 weeks): negative (inactive)
TD50 (mouse, strain CF-1, females, in feed, site: lung, lesion: carcinoma, dosed 122 weeks, study length 138 weeks): 1.78 mg/kg/day (inactive)
carcinogen call (mouse, strain CF-1, females, in feed, site: lung, lesion: carcinoma, dosed 128 weeks, study length 128 weeks): negative (inactive)
carcinogen call (mouse, strain CF-1, females, in feed, site: lung, lesion: one or several types, types not named, dosed 110 weeks, study length 110 weeks): negative (inactive)
TD50 (mouse, strain CF-1, males, in feed, site: liver, lesion: liver-cell tumor, type B, dosed 110 weeks, study length 124 weeks): 4.02 mg/kg/day
TD50 (mouse, strain CF-1, males, in feed, site: liver, lesion: liver-cell tumor, type B, dosed 112 weeks, study length 128 weeks): 4.66 mg/kg/day
TD50 (mouse, strain CF-1, males, in feed, site: liver, lesion: liver-cell tumor, type B, dosed 120 weeks, study length 134 weeks): 1.68 mg/kg/day
TD50 (mouse, strain CF-1, males, in feed, site: liver, lesion: liver-cell tumor, type B, dosed 128 weeks, study length 128 weeks): 5.12 mg/kg/day and 6.58 mg/kg/day
TD50 (mouse, strain CF-1, males, in feed, site: liver, lesion: liver-cell tumor, dosed 110 weeks, study length 110 weeks): 1.28 mg/kg/day
carcinogen call (mouse, strain CF-1, males, in feed, site: liver, lesion: several types, types named in the paper, dosed 110 weeks, study length 110 weeks): positive
TD50 (mouse, strain CF-1, males, in feed, site: liver, lesion: several types, types named in the paper, dosed 110 weeks, study length 124 weeks): 0.713 mg/kg/day
TD50 (mouse, strain CF-1, males, in feed, site: liver, lesion: several types, types named in the paper, dosed 112 weeks, study length 128 weeks): 1.12 mg/kg/day
TD50 (mouse, strain CF-1, males, in feed, site: liver, lesion: several types, types named in the paper, dosed 120 weeks, study length 134 weeks): 0.547 mg/kg/day
TD50 (mouse, strain CF-1, males, in feed, site: liver, lesion: several types, types named in the paper, dosed 128 weeks, study length 128 weeks): 0.913 mg/kg/day and 1.91 mg/kg/day
carcinogen call (mouse, strain CF-1, males, in feed, site: lung, lesion: adenoma, dosed 110 weeks, study length 124 weeks): negative (inactive)
carcinogen call (mouse, strain CF-1, males, in feed, site: lung, lesion: adenoma, dosed 112 weeks, study length 128 weeks): negative (inactive)
TD50 (mouse, strain CF-1, males, in feed, site: lung, lesion: adenoma, dosed 120 weeks, study length 134 weeks): 2.13 mg/kg/day (inactive)
carcinogen call (mouse, strain CF-1, males, in feed, site: lung, lesion: adenoma, dosed 128 weeks, study length 128 weeks): negative (inactive)
carcinogen call (mouse, strain CF-1, males, in feed, site: lung, lesion: carcinoma, dosed 110 weeks, study length 124 weeks): negative (inactive)
carcinogen call (mouse, strain CF-1, males, in feed, site: lung, lesion: carcinoma, dosed 112 weeks, study length 128 weeks): negative (inactive)
TD50 (mouse, strain CF-1, males, in feed, site: lung, lesion: carcinoma, dosed 120 weeks, study length 134 weeks): 3.71 mg/kg/day (inactive)
carcinogen call (mouse, strain CF-1, males, in feed, site: lung, lesion: carcinoma, dosed 128 weeks, study length 128 weeks): negative (inactive)
carcinogen call (mouse, strain CF-1, males, in feed, site: lung, lesion: one or several types, types not named, dosed 110 weeks, study length 110 weeks): negative (inactive)
carcinogen call (rat, strain CFE, females, in feed, site: any site (literature study), lesion: several types, types named in the paper, dosed 104 weeks, study length 104 weeks): negative (inactive)
TD50 (rat, strain CFE, males, in feed, site: any site (literature study), lesion: several types, types named in the paper, dosed 104 weeks, study length 104 weeks): 2.01 mg/kg/day (inactive)
TD50 (rat, strain Fischer 344, females, in feed, site: any site (literature study), lesion: several types, types named in the paper, dosed 105 weeks, study length 104 weeks): 489 mg/kg/day (inactive)
TD50 (rat, strain Fischer 344, males, in feed, site: any site (literature study), lesion: several types, types named in the paper, dosed 105 weeks, study length 104 weeks): 7.28 mg/kg/day (inactive)
TD50 (rat, strain Not specified, females, in feed, site: any site (literature study), lesion: one or several types, types not named, dosed 104 weeks, study length 104 weeks): 57.2 mg/kg/day (inactive)
TD50 (rat, strain Not specified, males, in feed, site: any site (literature study), lesion: one or several types, types not named, dosed 104 weeks, study length 104 weeks): 40.5 mg/kg/day (inactive)
carcinogen call (rat, strain Osborne-Mendel, both sexes, in feed, site: any site (literature study), lesion: several types, types named in the paper, dosed 104 weeks, study length 104 weeks): positive
TD50 (rat, strain Osborne-Mendel, females, in feed, site: adrenal gland, lesion: cortical adenoma + cortical carcinoma, dosed 90 weeks, study length 109 weeks): 4.42 mg/kg/day (inactive)
carcinogen call (rat, strain Osborne-Mendel, females, in feed, site: any site (literature study), lesion: several types, types named in the paper, dosed 90 weeks, study length 110 weeks): negative (inactive)
carcinogen call (rat, strain Osborne-Mendel, females, in feed, site: any site (literature study), lesion: several types, types named in the paper, dosed 121 weeks, study length 126 weeks): negative (inactive)
TD50 (rat, strain Osborne-Mendel, females, in feed, site: liver, lesion: hepatocellular adenoma + hepatocellular carcinoma + neoplastic nodule, dosed 90 weeks, study length 110 weeks): 38.4 mg/kg/day
carcinogen call (rat, strain Osborne-Mendel, females, in feed, site: liver, lesion: one or several types, types not named, dosed 121 weeks, study length 126 weeks): negative (inactive)
TD50 (rat, strain Osborne-Mendel, males, in feed, site: any site (literature study), lesion: several types, types named in the paper, dosed 90 weeks, study length 110 weeks): 3.34 mg/kg/day (inactive)
carcinogen call (rat, strain Osborne-Mendel, males, in feed, site: any site (literature study), lesion: several types, types named in the paper, dosed 126 weeks, study length 126 weeks): negative (inactive)
carcinogen call (rat, strain Osborne-Mendel, males, in feed, site: liver, lesion: hemangioma, dosed 126 weeks, study length 126 weeks): negative (inactive)

Cn1c(=O)c2[nH]cnc2n(C)c1=O
TD50 (mouse, strain B6C3F1, females, by gavage, site: all sites, lesion: histiocytic sarcoma, dosed 103 weeks, study length 104 weeks): 20.5 mg/kg/day (inactive)
carcinogen call (mouse, strain B6C3F1, males, by gavage, site: any site (literature study), lesion: several types, types named in the paper, dosed 103 weeks, study length 104 weeks): negative (inactive)
carcinogen call (rat, strain Fischer 344, females, by gavage, site: any site (literature study), lesion: several types, types named in the paper, dosed 104 weeks, study length 104 weeks): negative (inactive)
carcinogen call (rat, strain Fischer 344, males, by gavage, site: any site (literature study), lesion: several types, types named in the paper, dosed 104 weeks, study length 104 weeks): negative (inactive)
